Measured values: PubChem BioAssay (NCI)
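Step 1: Grow cells in 96-well plates. Step 2: Expose to compound for 48 hours at 5 concentrations. Step 3: Interpolate endpoints linearly; if unreached, use highest concentration. GI50: concentration for 50% inhibition of growth. At the TGI there is no net growth.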

Columns and labels:
Test in all cases: NCI tumour cell line growth inhibition, 48 h
HOP-62 NSCLC = test system: HOP-62 NSCLC
HS 578T breast = test system: HS 578T breast
MOLT-4 leukemia = test system: MOLT-4 leukemia
SF-268 CNS = test system: SF-268 CNS
BT-549 breast = test system: BT-549 breast
NCI-H226 lung = test system: NCI-H226 lung
CAKI-1 renal = test system: CAKI-1 renal
NCI-H522 lung = test system: NCI-H522 lung
A549 NSCLC = test system: A549 NSCLC
MALME-3M melanoma = test system: MALME-3M melanoma

Row | SMILES | GI50 (HOP-62 NSCLC) [µM] | TGI (HOP-62 NSCLC) [µM] | GI50 (HS 578T breast) [µM] | TGI (HS 578T breast) [µM] | GI50 (MOLT-4 leukemia) [µM] | TGI (MOLT-4 leukemia) [µM] | GI50 (SF-268 CNS) [µM] | TGI (SF-268 CNS) [µM] | GI50 (BT-549 breast) [µM] | TGI (BT-549 breast) [µM] | GI50 (NCI-H226 lung) [µM] | TGI (NCI-H226 lung) [µM] | GI50 (CAKI-1 renal) [µM] | TGI (CAKI-1 renal) [µM] | GI50 (NCI-H522 lung) [µM] | TGI (NCI-H522 lung) [µM] | GI50 (A549 NSCLC) [µM] | TGI (A549 NSCLC) [µM] | GI50 (MALME-3M melanoma) [µM] | TGI (MALME-3M melanoma) [µM]
1 | C=C(C)[C@@H]1CC[C@]2(COC(=O)c3ccccc3C(=O)O)CC[C@]3(C)[C@H](CC[C@@H]4[C@@]5(C)CC[C@H](OC(=O)c6ccccc6C(=O)O)C(C)(C)[C@@H]5CC[C@]43C)[C@@H]12 | 21.8 | 54.2 | 26.4 | > 100 | 56.7 | > 100 | 26.6 | > 100 | 33.3 | > 100 | 32 | > 100 | 18.6 | 85.2 | 22.8 | 96.9 | 29.8 | > 100 | 60.8 | > 100
2 | C=CC(=O)N1CCC(CNc2ncnc(N)c2-c2ccc(Oc3ccccc3)cc2)CC1 | 25.8 | 82.6 | 24 | 95.2 | 18.6 | 66 | 26.6 | > 100 | 20.3 | 70.1 | 19.5 | 85.1 | 22.5 | > 100 | 10.4 | 32.5 | 34.3 | > 100 | 23.9 | 67
3 | CCOc1cc(CCNC)c2c(ccc3ccc(OC)c(O)c32)c1OC | – | 37 | – | 45 | – | 26.4 | – | 38.3 | – | 30.1 | – | 46.9 | – | 34 | – | 21.7 | – | 39.6 | – | 20
4 | CN1CCN(c2ccc(NC(=O)c3cncnc3Nc3ccc4c(ccn4Cc4cccc(F)c4)c3)cc2)CC1 | 3.9 | 8.84 | 3.63 | 11.8 | 0.922 | 3.14 | 4.3 | 9.17 | 5.23 | 9.78 | 4.86 | 11.6 | 3.6 | 7.75 | 1.63 | 6.59 | 2.15 | 6.59 | 0.524 | 0.976
5 | COc1ccc(OC)c(-c2nc3sc(C)cn3c2/C=C2\C(=O)N(C)c3ccccc32)c1 | 22.5 | 61.4 | 23.6 | 70.4 | 15.9 | 59 | 19.7 | 63.6 | 26.2 | 81.6 | 29.8 | > 100 | 23.8 | 65.4 | 22 | 59.4 | 28.4 | > 100 | 28.5 | 70.1
6 | COc1ccc2c3c1OC1C4(CCC5C(C2)N(CC2CC2)CCC351)OCCO4 (centres undefined) | – | > 100 | – | > 100 | – | > 100 | – | > 100 | – | > 100 | – | > 100 | – | > 100 | – | > 100 | – | > 100 | – | > 100
7 | COC(=O)C1OC(SCCN)C(O)C(O)C1O (centres undefined) | – | > 100 | – | > 100 | – | > 100 | – | > 100 | – | > 100 | – | > 100 | – | > 100 | – | > 100 | – | > 100 | – | > 100
8 | NC(=O)/C=C/c1c[nH]c2nccnc12 | – | 19.3 | – | 4.6 | – | 1.38 | – | > 21.9 | – | 8.09 | – | 5.72 | – | > 100 | – | 45.9 | – | > 100 | – | 2.18
9 | N#CC1=C(N)Oc2c(ccc3cccnc23)C1c1ccccc1 (centres undefined) | – | > 22.9 | 1.73 | > 100 | – | 36.9 | – | > 100 | 1.73 | 23.6 | 11.4 | 50.9 | – | > 100 | 0.299 | 12.7 | – | > 100 | – | > 67.5
10 | Cn1c(=O)c2[nH]c(CCS)nc2n(C)c1=O | – | > 100 | – | 99.7 | – | > 100 | – | > 100 | – | > 100 | – | > 100 | – | > 100 | – | > 100 | – | > 100 | – | > 100
11 | COC(=O)C[C@@H]1CC=CC(=O)/C1=C(O)/C=C/c1ccccc1 | 0.56 | 1.86 | 3.49 | > 49.2 | 1.68 | 5.46 | 1.37 | 3.75 | 1.48 | 2.86 | 2.05 | 7.55 | 0.408 | 1.41 | 0.32 | 0.959 | 4.23 | 22 | 1.56 | 3.33
12 | Fc1cccc(-c2nc(-c3c[nH]c4ncccc34)cs2)c1 | 25.7 | > 100 | 2.95 | 16.7 | > 100 | > 100 | 38.2 | > 100 | 44.8 | > 100 | > 100 | > 100 | > 100 | > 100 | > 100 | > 100 | 17.7 | > 100 | 5.62 | > 100
